Test results reported in patent publication US20020137929A1, “1 - (3-heterocyclylphenyl) isothiourea, -isourea, -guanidine and -amidine herbicidal agents” (Intellectual Property Department, BASF Aktiengesellschaft, priority 1998, published 2002).

Assays:
CASOB (Sicklepod) = assay: Postemergence herbicidal evaluation; type: in vivo, Cassia obtusifolia; conditions: postemergence
Summary of the method: (§1)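 Compound is applied as a foliar spray to seedlings about two weeks old, formulated in equal parts acetone and water with 0.5% TWEEN 20 and delivered at 40 psi to give about 0.0156–0.500 kg per hectare. Injury is rated visually 0–9 after four to five weeks.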

[1] = test system: CHEAL (Lambsquarters, Common); assay: Postemergence herbicidal evaluation; type: in vivo, Chenopodium album; conditions: postemergence
Summary of the method: as §1

ECHCG (Barnyardgrass) = assay: Postemergence herbicidal evaluation; type: in vivo, Echinochloa crus-galli; conditions: postemergence
Summary of the method: as §1

ORYSAT (Rice, Tebonnet) [2] = assay: Postemergence herbicidal evaluation; type: in vivo, Oryza sativa, (L.) Tebonnet; conditions: postemergence
Summary of the method: as §1

GALAP (Galium) = assay: Preemergence herbicidal evaluation; type: in vivo, Galium aparine; conditions: rated 4-5 weeks after treatment
Summary of the method: (§2)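 Each species is sown separately in potting soil over roughly an inch of soil before any emergence. The soil surface then receives an aqueous acetone spray delivering about 0.0156 to 0.500 kg/ha of compound. After four to five weeks, injury is scored from 0 to 9 relative to a control.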

SETVI (Foxtail, Green) = assay: Preemergence herbicidal evaluation; type: in vivo, Setaria viridis; conditions: rated 4-5 weeks after treatment
Summary of the method: as §2

[3] = test system: GLXMAW (Soybean, Williams); assay: Preemergence herbicidal evaluation; type: in vivo, Glycine max, (L.) Merr. cv Williams; conditions: rated 4-5 weeks after treatment
Summary of the method: as §2

ORYSAT (Rice, Tebonnet) [4] = assay: Preemergence herbicidal evaluation; type: in vivo, Oryza sativa, (L.) Tebonnet; conditions: rated 4-5 weeks after treatment
Summary of the method: as §2

[5] = test system: TRZAWR (Wheat, Winter, cv Riband); assay: Preemergence herbicidal evaluation; type: in vivo, Triticum aestivum; conditions: rated 4-5 weeks after treatment
Excerpt: (§3) Results of herbicide evaluation are expressed on a rating scale (0-9). The scale is based upon a visual observation of plant stand, vigor, malformation, size, chlorosis and overall plant appearance as compared with a control.
(§4) The preemergence herbicidal activity of the test compounds of the present invention is exemplified by the following tests in which the seeds of a variety of monocotyledonous and dicotyledonous plants are separately mixed with potting soil and planted on top of approximately one inch of soil in separate pint cups. After planting, the cups are sprayed with the selected aqueous acetone solution containing test compound in sufficient quantity to provide the equivalent of about 0.0156 to 0.500 kg per hectare of test compound per cup. The treated cups are then placed on greenhouse benches, watered and cared for in accordance with conventional greenhouse procedures. From four to five weeks after treatment, the tests are terminated and each cup is examined and rated according to the rating system provided in Example 37.
(§5) The compounds evaluated are reported by compound number given in Example 37.

ZEAMX (Corn, Field) = assay: Preemergence herbicidal evaluation; type: in vivo, Zea mays; conditions: rated 4-5 weeks after treatment
Excerpt: as §3, §4, §5

CYPIR (Rice Flatsedge) = assay: Preemergence weed control under flooded paddy conditions; type: in vivo, Cyperus iria; conditions: rated 3-4 weeks after treatment
Summary of the method: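 Visual injury scored 0-9 against control three to four weeks post-treatment, greenhouse-grown. Application: acetone/water (50/50) solutions dosed directly into flood water (1.5-3 cm over silt loam, planted top 0.5 cm), roughly 0.0313 to 0.500 kg/ha active ingredient.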

MOOVA (Monochoria) = assay: as above; type: in vivo, Monochoria vaginalis; conditions: rated 3-4 weeks after treatment
Summary of the method: (§6)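 First, seeds or propagules go into the top 0.5 cm of silt loam; next, water is held 1.5 to 3 cm over the soil; then compound (50/50 acetone/water) is pipetted into it at about 0.0313 to 0.500 kg/ha; finally plants are rated visually 0-9 after three to four weeks.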

[6] = test system: SAGPY (Arrowhead (Pygmaea)); assay: as above; type: in vivo, Sagittaria pygmaea; conditions: rated 3-4 weeks after treatment
Summary of the method: as §6

In the case of COC(=O)COC(=O)CN1C(=O)CSC1=Nc1cc(-n2c(=O)cc(C(F)(F)F)n(C)c2=O)c(F)cc1Cl [Compound 108, 2-{{2-Chloro-5-[3,6-dihydro-3-methyl-2,6-dioxo-4-(trifluoromethyl)-1(2H)-pyrimidinyl]-4-fluorophenyl}imino}-4-oxo-3-thiazolidineacetic acid, ester with methyl glycolate], the “Herbicidal rating CASOB” value (CASOB (Sicklepod); rate 0.0158 kg/ha) is reported as 1.0, the “Herbicidal rating CASOB” value (CASOB (Sicklepod); rate 0.0315 kg/ha) is reported as 1.0 and the “Herbicidal rating CASOB” value (CASOB (Sicklepod); rate 0.0630 kg/ha) is reported as 1.0. The “Herbicidal rating CHEAL” value ([1]; rate 0.0158 kg/ha) was 4.0, the “Herbicidal rating CHEAL” value ([1]; rate 0.0315 kg/ha) was 7.0 and the “Herbicidal rating CHEAL” value ([1]; rate 0.0630 kg/ha) was 9.0. The “Herbicidal rating ECHCG” value (ECHCG (Barnyardgrass); rate 0.0158 kg/ha) was 3.0, the “Herbicidal rating ECHCG” value (ECHCG (Barnyardgrass); rate 0.0315 kg/ha) was 4.0 and the “Herbicidal rating ECHCG” value (ECHCG (Barnyardgrass); rate 0.0630 kg/ha) was 4.0. For the same molecule, the “Herbicidal rating ORYSAT” value (ORYSAT (Rice, Tebonnet) [2]; rate 0.0158 kg/ha) was 3.0, the “Herbicidal rating ORYSAT” value (ORYSAT (Rice, Tebonnet) [2]; rate 0.0315 kg/ha) was 3.0 and the “Herbicidal rating ORYSAT” value (ORYSAT (Rice, Tebonnet) [2]; rate 0.0630 kg/ha) was 3.5. The “Preemergence herbicidal rating GALAP” value (GALAP (Galium); rate 0.0156 kg/ha) was 1.0, the “Preemergence herbicidal rating GALAP” value (GALAP (Galium); rate 0.0313 kg/ha) was 2.0 and the “Preemergence herbicidal rating GALAP” value (GALAP (Galium); rate 0.0625 kg/ha) was 6.0. For the same molecule, the “Preemergence herbicidal rating GALAP” value (GALAP (Galium); rate 0.1250 kg/ha) was 7.0, the “Preemergence herbicidal rating GALAP” value (GALAP (Galium); rate 0.2500 kg/ha) was 9.0 and the “Preemergence herbicidal rating SETVI” value (SETVI (Foxtail, Green); rate 0.0156 kg/ha) was 0.0. The “Preemergence herbicidal rating SETVI” value (SETVI (Foxtail, Green); rate 0.0313 kg/ha) was 0.0, the “Preemergence herbicidal rating SETVI” value (SETVI (Foxtail, Green); rate 0.0625 kg/ha) was 1.0 and the “Preemergence herbicidal rating SETVI” value (SETVI (Foxtail, Green); rate 0.1250 kg/ha) was 7.0. For the same molecule, the “Preemergence herbicidal rating SETVI” value (SETVI (Foxtail, Green); rate 0.2500 kg/ha) was 9.0, the “Preemergence herbicidal rating GLXMAW” value ([3]; rate 0.0156 kg/ha) was 0.0 and the “Preemergence herbicidal rating GLXMAW” value ([3]; rate 0.0625 kg/ha) was 2.0. The “Preemergence herbicidal rating GLXMAW” value ([3]; rate 0.1250 kg/ha) was 2.0, the “Preemergence herbicidal rating GLXMAW” value ([3]; rate 0.2500 kg/ha) was 2.0 and the “Preemergence herbicidal rating ORYSAT” value (ORYSAT (Rice, Tebonnet) [4]; rate 0.0156 kg/ha) was 0.0. The “Preemergence herbicidal rating ORYSAT” value (ORYSAT (Rice, Tebonnet) [4]; rate 0.0313 kg/ha) was 0.0, the “Preemergence herbicidal rating ORYSAT” value (ORYSAT (Rice, Tebonnet) [4]; rate 0.0625 kg/ha) was 0.0 and the “Preemergence herbicidal rating ORYSAT” value (ORYSAT (Rice, Tebonnet) [4]; rate 0.1250 kg/ha) was 1.0. The “Preemergence herbicidal rating ORYSAT” value (ORYSAT (Rice, Tebonnet) [4]; rate 0.2500 kg/ha) was 5.0, the “Preemergence herbicidal rating TRZAWR” value ([5]; rate 0.0156 kg/ha) was 0.0 and the “Preemergence herbicidal rating TRZAWR” value ([5]; rate 0.0313 kg/ha) was 0.0. For the same molecule, the “Preemergence herbicidal rating TRZAWR” value ([5]; rate 0.0625 kg/ha) was 0.0, the “Preemergence herbicidal rating TRZAWR” value ([5]; rate 0.1250 kg/ha) was 2.0 and the “Preemergence herbicidal rating TRZAWR” value ([5]; rate 0.2500 kg/ha) was 5.0. For the same molecule, the “Preemergence herbicidal rating ZEAMX” value (ZEAMX (Corn, Field); rate 0.0156 kg/ha) was 0.0, the “Preemergence herbicidal rating ZEAMX” value (ZEAMX (Corn, Field); rate 0.0313 kg/ha) was 0.0 and the “Preemergence herbicidal rating ZEAMX” value (ZEAMX (Corn, Field); rate 0.0625 kg/ha) was 0.0. The “Preemergence herbicidal rating ZEAMX” value (ZEAMX (Corn, Field); rate 0.1250 kg/ha) was 1.0, the “Preemergence herbicidal rating ZEAMX” value (ZEAMX (Corn, Field); rate 0.2500 kg/ha) was 2.0 and the “CYPIR herbicidal effect rating” value (CYPIR (Rice Flatsedge); 0.0313 kg/ha) was 4.0. For the same molecule, the “CYPIR herbicidal effect rating” value (CYPIR (Rice Flatsedge); 0.0625 kg/ha) was 6.0, the “CYPIR herbicidal effect rating” value (CYPIR (Rice Flatsedge); 0.1250 kg/ha) was 7.0 and the “CYPIR herbicidal effect rating” value (CYPIR (Rice Flatsedge); 0.2500 kg/ha) was 7.0. For the same molecule, the “MOOVA herbicidal effect rating” value (MOOVA (Monochoria); 0.0313 kg/ha) was 9.0, the “MOOVA herbicidal effect rating” value (MOOVA (Monochoria); 0.0625 kg/ha) was 9.0 and the “MOOVA herbicidal effect rating” value (MOOVA (Monochoria); 0.1250 kg/ha) was 9.0. The “MOOVA herbicidal effect rating” value (MOOVA (Monochoria); 0.2500 kg/ha) was 9.0, the “SAGPY herbicidal effect rating” value ([6]; 0.0313 kg/ha) was 0.0 and the “SAGPY herbicidal effect rating” value ([6]; 0.0625 kg/ha) was 0.0. The “SAGPY herbicidal effect rating” value ([6]; 0.1250 kg/ha) was 3.0 and the “SAGPY herbicidal effect rating” value ([6]; 0.2500 kg/ha) was 6.0.
